How the values were obtained:
[1] = target: PCP receptor (binding of the PCP ligand 3H-TCP); assay: Receptor Binding Assay: inhibition of 3H-TCP binding in frozen brain sections; conditions: frozen brain sections (10 microns), 20 nM 3H-TCP, 45 min at 4° C., Scatchard/Rosenthal analysis
Protocol: Prevention of the neurodegenerative consequences associated with conditions of hypoxia or ischemia may be accomplished with administration of a compound of Formula I. In particular, the compound 3-methylamino-2,2,3-trimethylbicyclo[2.2.1]heptane (mecamylamine) was evaluated in biological assays designed to detect compounds capable of inhibiting hypoxia/ischemia-induced neuronal degeneration. Mecamylamine was evaluated for its ability to inhibit the binding of the PCP ligand tritiated 1-[1-(2-thienyl)cyclohexyl]piperidine [^3 H-TCP].
For receptor binding, frozen brain sections (10 microns) were incubated in […] tris acetate (pH 7.25) containing 0.5 mM magnesium acetate and 20 nM ^3 H-TCP for 45 min. at 4° C. Non-specific binding was assessed with 200 μM PCP. Inhibition of ^3 H-TCP binding was studied by including potential inhibitors in the ^3 H-TCP incubation at concentrations from 10 nM to 1 mM. Dissociation and inhibition constants were calculated by Scatchard/Rosenthal analysis of data obtained by liquid scintillation counting of whole sections.

[2] = tested on: NMA (200 μM) neurotoxicity in chick embryo retina; assay: NMDA/KA Antagonist Assay: prevention of NMA neurotoxicity in chick embryo retina; type: cell-based; conditions: Gallus gallus, 0.5 h, 15-day old chick embryo retina, 30 min at 37° C., criterion: complete prevention of toxicity in all specimens, read-out: concentration providing total protection against toxicity of NMA
Protocol: (§1) A 15-day old chick embryo retina, incubated for 30 min. in a balanced salt solution (BSS) containing 1 mM Glu, developed a full lesion resembling that described in the immature mouse retina following s.c. administration of Glu. Other excitotoxin agonists also produce acute lesions within 30 min., each agent being effective at a concentration proportional to its known excitatory and toxic potencies. The pattern of cellular degeneration is restricted in each case to the ganglion cell, inner plexiform and inner nuclear layers, but within these areas certain agonists induce different patterns of degeneration, the differences being most pronounced between NMA and KA. Two agonists were employed in the present test, each at a concentration established previously to be the lowest concentration required to consistently cause a fully-developed retinal lesion: KA (25 μM) and NMA (200 μM). Mecamylamine was tested at various concentrations for its ability to prevent KA or NMA neurotoxicity. Although partial blocking was sometimes observed for antagonist concentrations below the threshold for complete protection, the criterion used for comparing agents for antagonist potency was the concentration required to completely prevent KA or NMA from exerting any toxic activity in any specimen (n>6) studied at that concentration. […]

[3] = tested on: KA (25 μM) neurotoxicity in chick embryo retina; assay: NMDA/KA Antagonist Assay: prevention of KA neurotoxicity in chick embryo retina; type: cell-based; conditions: 15-day old chick embryo retina, 30 min at 37° C., tested at various concentrations
Protocol: as §1

CNC1(C)C2CCC(C2)C1(C)C (stereo not drawn) [mecamylamine, 3-(methylamino)-2,2,3-trimethylbicyclo[2.2.1]heptane]
Ki [1]: 122 µM
EC100 [2]: 100 µM
blocking of KA toxicity [3]: not observed

Reference: patent publication US4837218A, “Alkylated bicycloalkaneamines for treatment of neurotoxic injury” (Washington University, priority 1987, dated 1989)
